Assay [1] concerns the target D(2) dopamine receptor (Homo sapiens, UniProt P14416). The assay can be described thus: Binding affinity against human Dopamine receptor D2 expressed in CHO cells by using [125I]iodosulpiride as radioligand. Type of assay: cell-based.
Assay [2] addresses D(3) dopamine receptor (Homo sapiens, UniProt P35462). The assay can be described thus: Binding affinity against human Dopamine receptor D3 expressed in CHO cells by using [125I]iodosulpiride as radioligand. Type of assay: cell-based.

D(2) dopamine receptor, sequence (P14416 whole entry): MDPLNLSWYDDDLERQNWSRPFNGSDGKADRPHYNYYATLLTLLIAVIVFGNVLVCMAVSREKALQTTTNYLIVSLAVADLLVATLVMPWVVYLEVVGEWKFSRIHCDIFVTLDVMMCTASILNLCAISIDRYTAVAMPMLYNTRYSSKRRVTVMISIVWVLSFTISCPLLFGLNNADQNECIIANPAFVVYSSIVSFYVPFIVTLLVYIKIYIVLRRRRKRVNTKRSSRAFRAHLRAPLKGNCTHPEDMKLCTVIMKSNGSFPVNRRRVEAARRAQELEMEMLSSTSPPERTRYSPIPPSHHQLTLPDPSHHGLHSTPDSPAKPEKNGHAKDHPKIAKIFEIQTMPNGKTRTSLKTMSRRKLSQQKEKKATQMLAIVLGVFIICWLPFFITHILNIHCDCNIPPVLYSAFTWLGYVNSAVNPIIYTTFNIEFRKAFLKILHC
D(3) dopamine receptor, sequence (P35462 whole entry): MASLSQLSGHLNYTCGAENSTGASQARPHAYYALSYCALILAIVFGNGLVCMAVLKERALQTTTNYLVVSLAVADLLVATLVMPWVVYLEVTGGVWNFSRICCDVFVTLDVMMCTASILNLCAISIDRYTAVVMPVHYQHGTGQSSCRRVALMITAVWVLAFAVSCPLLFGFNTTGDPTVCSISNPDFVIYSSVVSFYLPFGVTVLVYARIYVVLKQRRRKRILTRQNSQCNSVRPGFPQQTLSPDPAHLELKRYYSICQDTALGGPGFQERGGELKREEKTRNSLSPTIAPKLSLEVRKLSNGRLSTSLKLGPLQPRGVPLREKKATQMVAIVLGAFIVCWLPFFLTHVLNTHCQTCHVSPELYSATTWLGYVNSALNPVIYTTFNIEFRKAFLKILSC

On to `Cc1ncc(-c2cccc(C(=O)N[C@H]3CC[C@H](CCN4CCc5ccc(OS(C)(=O)=O)cc5CC4)CC3)c2)o1`, for which the Ki in assay [1] was 200 nM; in assay [2] it was 1.26 nM.
In the same order, the values of `COc1ccc(/C=C/C(=O)N[C@H]2CC[C@H](CCN3CCc4ccc(OS(C)(=O)=O)cc4CC3)CC2)cc1` are 31.6 nM and 1 nM.
As to `CS(=O)(=O)c1ccc2c(c1)CCN(CC[C@H]1CC[C@H](NC(=O)/C=C/c3cc(F)cc(F)c3)CC1)CC2`, the Ki in assay [1] was 251 nM; in assay [2], 2 nM.
As for `Cc1cc(C(=O)N[C@H]2CC[C@H](CCN3CCc4ccc(OS(C)(=O)=O)cc4CC3)CC2)c2ccccc2n1`, the inhibition constant (Ki) was 631 nM in assay [1] and 20 nM in assay [2].
In the same order, the values of `Cc1ccc2c(C(=O)N[C@H]3CC[C@H](CCN4CCc5ccc(S(C)(=O)=O)cc5CC4)CC3)cccc2n1` are 316 nM and 3.98 nM.
In the case of `Cc1cnc(-c2cccc(C(=O)N[C@H]3CC[C@H](CCN4CCc5ccc(S(C)(=O)=O)cc5CC4)CC3)c2)o1`, the Ki in assay [1] is 631 nM; in assay [2], 7.94 nM.
In the same order, the values of `Cc1ncc(-c2cccc(C(=O)N[C@H]3CC[C@H](CCN4CCc5ccc(S(C)(=O)=O)cc5CC4)CC3)c2)o1` are 631 nM and 6.31 nM.
In the same order, the values of `CS(=O)(=O)c1ccc2c(c1)CCN(CC[C@H]1CC[C@H](NC(=O)/C=C/c3ccc(F)cc3)CC1)CC2` are 79.4 nM and 1 nM.
For `Cc1ccc2c(C(=O)N[C@H]3CC[C@H](CCN4CCc5ccc(S(C)(=O)=O)cc5CC4)CC3)ccc(F)c2n1` the same measures were 794 nM and 3.16 nM.
Consider `CS(=O)(=O)c1ccc2c(c1)CCN(CC[C@H]1CC[C@H](NC(=O)/C=C/c3cccc(F)c3)CC1)CC2`, for which the Ki was 126 nM in assay [1] and 1.58 nM in assay [2].
In the same order, the values of `CS(=O)(=O)Oc1ccc2c(c1)CCN(CC[C@H]1CC[C@H](NC(=O)c3cccc4ncccc34)CC1)CC2` are 200 nM and 2 nM.
For `Cn1nccc1-c1cccc(C(=O)N[C@H]2CC[C@H](CCN3CCc4ccc(S(C)(=O)=O)cc4CC3)CC2)c1` the same measures were 501 nM and 3.16 nM.
For `Cc1ccc2c(C(=O)N[C@H]3CC[C@H](CCN4CCc5ccc(OS(C)(=O)=O)cc5CC4)CC3)cccc2n1` the same measures were 200 nM and 1.26 nM.
Regarding `CS(=O)(=O)c1ccc2c(c1)CCN(CC[C@H]1CC[C@H](NC(=O)/C=C/c3ccccc3C#N)CC1)CC2`, the inhibition constant (Ki) in assay [1] is 158 nM; in assay [2] it was 1.58 nM.
In the same order, the values of `Cc1coc(-c2cccc(C(=O)N[C@H]3CC[C@H](CCN4CCc5ccc(OS(C)(=O)=O)cc5CC4)CC3)c2)n1` are 200 nM and 3.16 nM.
For `CS(=O)(=O)c1ccc2c(c1)CCN(CC[C@H]1CC[C@H](NC(=O)/C=C/c3c(F)cccc3F)CC1)CC2`, the figures for the inhibitory constant (Ki) in assay [1] and in assay [2] were 398 nM and 2.51 nM, respectively.
In the same order, the values of `CS(=O)(=O)c1ccc2c(c1)CCN(CC[C@H]1CC[C@H](NC(=O)/C=C/c3ccc(C#N)cc3)CC1)CC2` are 126 nM and 2 nM.
The molecule `CS(=O)(=O)Oc1ccc2c(c1)CCN(CC[C@H]1CC[C@H](NC(=O)/C=C/c3ccccc3F)CC1)CC2` had an inhibition constant (Ki) in assay [2] of 1.26 nM.
In the case of `CS(=O)(=O)c1ccc2c(c1)CCN(CC[C@H]1CC[C@H](NC(=O)/C=C/c3cccc(C#N)c3)CC1)CC2`, the Ki in assay [1] is 158 nM; in assay [2], 2 nM.
For `CS(=O)(=O)Oc1ccc2c(c1)CCN(CC[C@H]1CC[C@H](NC(=O)c3cccc4ccccc34)CC1)CC2` the same measures were 316 nM and 2.51 nM.
For `Cc1cc(-c2cccc(C(=O)N[C@H]3CC[C@H](CCN4CCc5ccc(OS(C)(=O)=O)cc5CC4)CC3)c2)on1` the same measures were 158 nM and 2 nM.
For the molecule `Cc1nc(-c2cccc(C(=O)N[C@H]3CC[C@H](CCN4CCc5ccc(OS(C)(=O)=O)cc5CC4)CC3)c2)no1`, the Ki in assay [1] was 200 nM; in assay [2], 2.51 nM.
In the case of `COc1ccccc1/C=C/C(=O)N[C@H]1CC[C@H](CCN2CCc3ccc(OS(C)(=O)=O)cc3CC2)CC1`, the Ki was 100 nM in assay [1] and 1.26 nM in assay [2].
For the molecule `CS(=O)(=O)Oc1ccc2c(c1)CCN(CC[C@H]1CC[C@H](NC(=O)c3cccc(-c4ncccn4)c3)CC1)CC2`, the Ki is 316 nM in assay [1] and 2 nM in assay [2].
In the same order, the values of `CS(=O)(=O)Oc1ccc2c(c1)CCN(CC[C@H]1CC[C@H](NC(=O)/C=C/c3ccc(F)cc3)CC1)CC2` are 63.1 nM and 0.794 nM.
In the same order, the values of `Cc1cc(-c2cccc(C(=O)N[C@H]3CC[C@H](CCN4CCc5ccc(S(C)(=O)=O)cc5CC4)CC3)c2)on1` are 501 nM and 3.98 nM.
`CS(=O)(=O)Oc1ccc2c(c1)CCN(CC[C@H]1CC[C@H](NC(=O)/C=C/c3cccc(F)c3)CC1)CC2`: the inhibition constant (Ki) in assay [2] was 1.26 nM.
Regarding `Cc1cnc(-c2cccc(C(=O)N[C@H]3CC[C@H](CCN4CCc5ccc(OS(C)(=O)=O)cc5CC4)CC3)c2)o1`, the Ki in assay [1] is 316 nM; in assay [2], 3.16 nM.
For `CS(=O)(=O)Oc1ccc2c(c1)CCN(CC[C@H]1CC[C@H](NC(=O)c3cccc(-n4cccc4)c3)CC1)CC2` the same measures were 251 nM and 3.16 nM.
For `CS(=O)(=O)c1ccc2c(c1)CCN(CC[C@H]1CC[C@H](NC(=O)/C=C/c3ccccc3F)CC1)CC2` the same measures were 126 nM and 1.26 nM.
In the same order, the values of `COc1cccc(/C=C/C(=O)N[C@H]2CC[C@H](CCN3CCc4ccc(OS(C)(=O)=O)cc4CC3)CC2)c1` are 63.1 nM and 2 nM.

The record behind these values is ChEMBL document CHEMBL1145891, “Design and synthesis of trans-3-(2-(4-((3-(3-(5-methyl-1,2,4-oxadiazolyl))- phenyl)carboxamido)cyclohexyl)ethyl)-7-methylsulfonyl-2,3,4,5-tetrahydro-1H-3-benzazepine (SB-414796): a potent and selective dopamine D3 receptor antagonist” (J Med Chem, 2003).
